Source: paper PMC5884943, “Discovery of Novel Inhibitors of Indoleamine 2,3-Dioxygenase 1 Through Structure-Based Virtual Screening” (Frontiers in Pharmacology, 2018)
Read-outs that look alike come from different tables or passages of the source.

Key:
human IDO1 protein = molecular target: T1, human IDO1 protein (Homo sapiens, UniProt P14902); test: Enzymatic IDO1 assay (Absorbance 321 assay); format: biochemical; settings: for inhibition at 20 µM / Inhibition ratio (%) @ 20 μM: 20 μM compound; for inhibition at 20 µM: read-out: Inhibition ratio (%) @ 20 μM; for IC50: IDO1 enzymatic level; for Avg_Inh (%) @ 50uM: average inhibition, Table S2; for Background (%): background signal of the compound in the absorbance assay
T1 construct: purchased ChemPartner Lot; No. 20160706
T1 sequence (P14902 whole entry): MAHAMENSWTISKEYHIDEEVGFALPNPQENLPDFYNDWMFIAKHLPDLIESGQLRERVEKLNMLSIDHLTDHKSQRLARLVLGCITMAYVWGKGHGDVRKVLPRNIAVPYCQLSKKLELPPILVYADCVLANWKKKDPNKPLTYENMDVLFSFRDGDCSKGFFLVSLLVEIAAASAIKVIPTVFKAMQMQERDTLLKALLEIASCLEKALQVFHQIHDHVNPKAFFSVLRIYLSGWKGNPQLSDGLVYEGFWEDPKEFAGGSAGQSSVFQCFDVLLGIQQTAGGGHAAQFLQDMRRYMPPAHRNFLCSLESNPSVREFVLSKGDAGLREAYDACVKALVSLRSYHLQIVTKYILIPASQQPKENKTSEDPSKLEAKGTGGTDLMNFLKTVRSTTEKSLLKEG
Procedure: The standard assay mixture contained modified potassium phosphate buffer at pH 6.5, 100 μM L-tryptophan (Sigma, Cat. […] No. […]). […] Then the assay plate was read at OD321 kinetically in Spectramax. […] Fit the data in […]5.0 software to obtain IC50-values using Equation (2): (2) Y=Bottom+Top-Bottom/1+10^(logIC50-X)×HillSlope where Y stands for inhibition percentage and X stands for compound concentration. All determinations were carried out in duplicate.

IDO1 in HeLa cells = molecular target: T2, IDO1 in HeLa cells (Homo sapiens, UniProt P14902); test: HeLa cellular IDO1 assay (kynurenine OD 480 nm after IFN-γ); format: cell-based; settings: IDO1 inhibition in HeLa cells, 48 h
T2 construct: endogenous in cells; host or cells: HeLa (ATCC CCL-2), stimulated with recombinant human IFN-γ
T2 sequence (P14902 whole entry): as above
Procedure: We chose HeLa cell line (ATCC, Cat. No. CCL-2, 4965442) to detect whether our compounds could inhibit IDO activity at cellular level by optical density (OD) assay. The assay was performed in 96-well flat bottom plate (CORNING, Cat. No. 3903) seeded with 5,000 cells in a final volume of 100 μL. Each well 80 μL HeLa cells were incubated overnight at 37°C in EMEM (Invitrogen, Cat. No. 11095098) supplemented with 10% FBS (Invitrogen, Cat. No. 10099-141, Lot. No. 8153379). Then compounds that have been serial diluted were added in corresponding well and 10 μL Recombinant Human IFN-γF (Peprotech, Cat. No. 300-02) was added in each well except wells for Min (Medium containing 0.5% DMSO with cells). The mixture of cells were incubated at 37°C, 5% CO2 for 48 h. Then transferred 90 μL of supernatant to 96-well plate (CORNING, Cat. No. 3599) and store at −20°C fridge for colormetric analysis. The next day, 10 μL of 6.1 N trichloroacetic acid (Sigma, Cat. No. T0699) were added in each well after transferred 80 μL supernatant to 96-well plate (CORNING, Cat. No. 3894). Then the mixture was incubated at 50°C for 30 min. Sediments were removed by centrifuged for 10 min at 2,500 rpm. Seventy microliters of 70 μL of 2% (w/v) p-dimethylaminobenzaldehyde (Sigma-Aldrich, Cat. No. 15647-7) was added after 70 μL of the supernatant were transferred to assay plate (CORNING, Cat. No. 3635). Finally, OD-value was measured at 480 nm using an EnSpire (PE).

IDO1 = settings: Figure 1, published IDO1 inhibitors, cited from earlier work

| SMILES | Avg_Inh (%) @ 50uM (human IDO1 protein) [%] | Background (%) (human IDO1 protein) | other results |
| --- | --- | --- | --- |
| CCOc1cc(C(=O)NC(=S)Nc2c(O)ccc3ccccc23)cc(OCC)c1OCC [DC-I02806] |  |  | inhibition at 20 µM (human IDO1 protein): 75.3%; IC50 (human IDO1 protein): 18.7 µM; IC50 (IDO1 in HeLa cells): 18.2 µM |
| COc1ccc(C(=O)NC(=S)Nc2c(O)ccc3ccccc23)cc1Br [DC-I02805] |  |  | inhibition at 20 µM (human IDO1 protein): 54.7%; IC50 (human IDO1 protein): 13.7 µM; Hela / Cellular IC50 (IDO1 in HeLa cells): No activity |
| Clc1ccc(N2COc3ccc4ccccc4c3C2)cc1 [DC-I028] | 82.33 | 55.25 | inhibition at 20 µM (human IDO1 protein): 58%; Inhibition ratio (%) @ 50 μM (human IDO1 protein; 50 μM compound): 82%; IC50 (human IDO1 protein): 21.6 µM; IC50 (IDO1 in HeLa cells): 89.1 µM |
| Cc1ccc(Cl)cc1N1COc2ccc3ccccc3c2C1 [DC-I02802] |  |  | inhibition at 20 µM (human IDO1 protein): 42.2%; IC50 (human IDO1 protein): 44.2 µM; IC50 (IDO1 in HeLa cells): 56 µM |
| Cc1ccc([N+](=O)[O-])cc1N1COc2ccc3ccccc3c2C1 [DC-I02804] |  |  | inhibition at 20 µM (human IDO1 protein): 39.1%; IC50 (human IDO1 protein): 27.8 µM; IC50 (IDO1 in HeLa cells): 98.4 µM |
| CC1CCCN(C(C)CS(=O)(=O)c2ccc3ccccc3c2)C1 (stereo not drawn) [DCI-021] | -2.20 | 37.17 |  |
| Cc1ccc(/C=N/Nc2nc3ccccc3[nH]c2=O)cc1 [DCI-023] | -2.26 | 53.84 |  |
| O=C(NC(=S)Nc1c(O)ccc2ccccc12)c1ccccc1Br [DC-I02808] |  |  | inhibition at 20 µM (human IDO1 protein): 61.3%; IC50 (human IDO1 protein): 17.9 µM; IC50 (IDO1 in HeLa cells): 46.4 µM |
| O=C(NCC1CCCO1)c1ccc(COc2ccc3ccccc3c2)cc1 (stereo not drawn) [DCI-015] | 20.11 | 40.12 |  |
| COc1cc2sc3c(=O)[nH]c4ccccc4c3c2cc1OC [DCI-029] | -6.51 | 40.56 |  |
| CC(O)Cn1c(=O)c(=O)[nH]c2ccccc21 (stereo not drawn) [DCI-051] | 6.69 | 57.46 |  |
| Cc1ccc(C)c(C(=O)CSc2ncnc3nc[nH]c23)c1 [DCI-013] | 4.76 | 38.66 |  |
| Cc1ccc(C2C(C#N)=C(N)Oc3ccc4ccc(O)cc4c32)cc1 (stereo not drawn) [DCI-069] | 79.20 | 42.53 |  |
| O=c1c(-c2nc3ccccc3[nH]2)coc2cc(O)ccc12 [DCI-025] | 9.07 | 66.83 |  |
| CC(Oc1ccccc1)C(=O)N1CCc2ccccc21 (stereo not drawn) [DCI-049] | 1.65 | 31.42 |  |
| CC(=O)Nc1ccc(NC(=O)COc2ccc(Br)cc2C)cc1 [DCI-085] | -4.72 | 37.26 |  |
| OC1Cc2ccccc2Sc2c(Cl)cccc21 (stereo not drawn) [DCI-033] | 45.38 | 34.53 |  |
| O=C(COc1ccc2ccccc2c1)c1ccc(Br)cc1 [DCI-075] | 79.98 | 55.42 |  |
| O=C(NC(=S)Nc1cccc2cc(O)ccc12)c1ccco1 [DC-I02810] |  |  | inhibition at 20 µM (human IDO1 protein): 15.6% |
| CCn1c(SCc2nc3ccccc3[nH]2)nc2cc(C(=O)OC)ccc2c1=O [DCI-103] | 43.77 | 52.04 |  |
| Cc1nn(C)cc1CN(C)C(=O)c1cc2ccccc2oc1=O [DCI-063] | 2.41 | 54.16 |  |
| Nc1ncnc2sc3c(c12)CCC3 [DCI-001] | -9.13 | 42.64 |  |
| CC(=O)c1nc2ccccc2[nH]1 [DCI-037] | 24.85 | 60.63 |  |

| SMILES | Avg_Inh (%) @ 50uM (human IDO1 protein) [%] | Background (%) (human IDO1 protein) | other results |
| --- | --- | --- | --- |
| Cc1cccc(-c2nnc(SCC(=O)Nc3c(C)cc(C)cc3C)o2)c1 [DC-I102] | 80.83 | 43.32 | Inhibition ratio (%) @ 20 μM (human IDO1 protein): 15.17% |
| O=C(COC(=O)c1ccc2ccccc2n1)c1ccc(Cl)cc1 [DC-I046] | 63.18 | 44.38 | Inhibition ratio (%) @ 20 μM (human IDO1 protein): 28.10% |
| CC(=O)Nc1cccc2ccc3c(c12)CN(Cc1ccccc1)CO3 [DC-I02803] |  |  | inhibition at 20 µM (human IDO1 protein): -11.2%; IDO1 inhibitory activity (in words) (human IDO1 protein; SAR discussion): inactive |
| COc1cccc(-c2[nH]nc3c2C(c2ccccc2F)C(C#N)=C(N)O3)c1 (stereo not drawn) [DCI-008] | 22.90 | 42.25 |  |
| COc1ccc(-c2nc(=O)cc(-c3ccccc3)o2)cc1 [DCI-048] | 7.58 | 71.51 |  |
| COc1ccc2ccccc2c1/C=N/NC(N)=S [DCI-084] | 35.60 | 64.61 |  |
| CCOc1nccc2sc3ccccc3c12 [DCI-044] | 44.52 | 40.43 |  |
| CN(CCCNc1cc(=O)oc2ccccc12)C(=O)c1ccc(F)cc1 [DCI-035] | 2.22 | 46.21 |  |
| Cc1ccccc1C(=O)Oc1ccc2ccc(O)cc2c1 [DCI-076] | 43.35 | 40.50 |  |
| c1ccc2c3c(c(CN4CCCCC4)cc2c1)COC3 [DCI-062] | 8.78 | 33.45 |  |
| CC(=O)c1ccc(N2COc3ccc4ccccc4c3C2)cc1 [DC-I02801] |  |  | inhibition at 20 µM (human IDO1 protein): 17.8% |
| Cc1c(-c2ccccc2)nc(-c2ccccc2)[nH]c1=O [DCI-045] | 11.41 | 39.40 |  |
| c1ccc2cc(OCc3nc4ccccc4s3)ccc2c1 [DCI-002] | 81.62 | 44.08 |  |
| O=C1c2ccccc2C(=O)N1CNCc1cc(=O)[nH]c(=O)[nH]1 [DCI-054] | 4.51 | 48.55 |  |
| O=S(=O)(c1ccc(N=Cc2c(O)ccc3ccccc23)cc1)N1CCCCC1 [DCI-100] | 94.68 | 57.16 |  |
| O=C(c1ccc(OCCc2ccccc2)cc1)N1CCCC1 [DCI-093] | 2.13 | 35.52 |  |
| c1csc(CNCCCc2nc3ccccc3[nH]2)c1 [DCI-019] | -8.21 | 33.33 |  |
| Cn1c(=O)c([N+](=O)[O-])c(Nc2ccc(Cl)cc2)c2ccccc21 [DCI-066] | 24.55 | 53.30 |  |
| O=C(Nc1ccccc1OCC1CCCO1)NC1CCCCC1 (stereo not drawn) [DCI-050] | 0.29 | 31.57 |  |
| Oc1ccc2ccccc2c1Sc1nnnn1-c1ccccc1 [DC-I02813] |  |  | inhibition at 20 µM (human IDO1 protein): 15.6% |
| Cc1ccc(-c2csc3nnc(SCC(=O)Nc4ccc5c(c4)OCO5)n23)cc1 [Amg-1] |  |  | IC50 (IDO1; ref Meininger et al., 2011): 36 µM |
| COc1ccc2ccccc2c1CNC(C)c1ccccc1 (stereo not drawn) [DCI-091] | -6.47 | 41.00 |  |
| COc1ccc(CNC(=O)COc2ccc3ccccc3c2)cc1 [DCI-005] | 11.86 | 36.51 |  |
| NNC(=O)c1ccc(COc2ccc3c(c2)CCC3)cc1 [DCI-040] | 40.66 | 31.86 |  |
